We go through one compound from patent US20100222421A1, “Usage of Baicalein in the Preparation of a Pharmaceutical Composition for the Treatment of Traumatic Brain Injury” (National Defense Medical Center, priority 2009, published 2010).

The subject of data set [1] is rats with controlled cortical impact (CCI) injury. In words: Modified neurological severity score (mNSS) after CCI injury. Type of data set: in vivo, rat. The settings on record: P<0.05. How it is done:
A previously described CCI injury procedure was utilized (Chen et al., 2003). Male Sprague-Dawley rats, which have body weight of 250-300 g, were anaesthetized with sodium pentobarbital (i.p.; 50 mgkg^−1; Rhone Merieux, Harlow, UK) and placed in a stereotaxic frame. A 5-mm craniotomy was performed over the left parietal cortex, centered on the coronal suture and 3 mm lateral to the sagittal suture. Considerable care was taken to avoid injury to the underlying dura. Injury was made using a pneumatic piston with a rounded metal tip (2.5 mm diameter) that was angled 22.5° C. to the vertical so that the tip was perpendicular with the brain surface at the centre of the craniotomy. A velocity of 4 ms^−1 and a deformation depth 2 mm below the dura were used. The bone flap was immediately replaced and sealed, and the scalp was closed with sutures. Body temperature was monitored throughout the surgery by a rectal probe; temperature was maintained at 37.0±0.5° C. using a heated pad. Rats were placed in a heated cage to maintain body temperature, while recovering from anaesthesia. Baicalein (30 mg kg^−1) dissolved in 10% dimethyl sulphoxide (0.25-0.3 mL) or a corresponding volume of vehicle (10% dimethyl sulphoxide) was administered i.p. immediately following injury or daily for 4 days (immediately, 25, 49 and 73 h) after injury. Behaviour testing using the rotarod, tactile adhesive removal, mNSS and beam walk tests was performed at […] as well as 4, 7, 14, 21 and 28 days post-injury. At 14 and 28 days, the animals were killed, perfused intravascularly and their brains were processed with cresyl violet staining to assess contusion volume (n=8 for each group). […] Behaviour testing was performed before CCI and at […] after CCI by an observer who was unaware of the experimental treatments. The battery of tests consisted of the rotarod motor test, tactile adhesive-removal somatosensory test, mNSS and beam walk test. […] One point was scored for the inability to perform the test or for the lack of a tested reflex; thus, the higher the score, the more severe the injury. […]

Data set [2] in a line: Body weight after CCI injury. The data set is classed as in vivo, rat. The settings on record: CCI-injured rats, 30 mg kg^-1 i.p.; P=0.8. How it is done: A previously described CCI injury procedure was utilized (Chen et al., 2003). Male Sprague-Dawley rats, which have body weight of 250-300 g, were anaesthetized with sodium pentobarbital (i.p.; 50 mgkg^−1; Rhone Merieux, Harlow, UK) and placed in a stereotaxic frame. A 5-mm craniotomy was performed over the left parietal cortex, centered on the coronal suture and 3 mm lateral to the sagittal suture. Considerable care was taken to avoid injury to the underlying dura. Injury was made using a pneumatic piston with a rounded metal tip (2.5 mm diameter) that was angled 22.5° C. to the vertical so that the tip was perpendicular with the brain surface at the centre of the craniotomy. A velocity of 4 ms^−1 and a deformation depth 2 mm below the dura were used. The bone flap was immediately replaced and sealed, and the scalp was closed with sutures. Body temperature was monitored throughout the surgery by a rectal probe; temperature was maintained at 37.0±0.5° C. using a heated pad. Rats were placed in a heated cage to maintain body temperature, while recovering from anaesthesia.
Baicalein (30 mg kg^−1) dissolved in 10% dimethyl sulphoxide (0.25-0.3 mL) or a corresponding volume of vehicle (10% dimethyl sulphoxide) was administered i.p. immediately following injury or daily for 4 days (immediately, 25, 49 and 73 h) after injury. […]

In the case of `O=c1cc(-c2ccccc2)oc2cc(O)c(O)c(O)c12` [baicalein], the “mNSS neurological deficit, multiple-dose versus single-dose treatment” value in data set [1] (30 mg kg^-1 i.p., days 4 and 7 after injury) is on record as “significantly greater reduction”. The “mNSS scores versus vehicle-treated group” value is recorded as “significantly less” in data set [1] (multiple-dose 30 mg kg^-1 i.p. daily for 4 days, days 1-28) and “significantly less” in data set [1] (single-dose 30 mg kg^-1 i.p., days 1-14). Moreover, the “body weight, baicalein versus vehicle” value in data set [2] is recorded as “no significant difference”.
